Results reported in publication PMC4503722, “Novel Phenotypic Outcomes Identified for a Public Collection of Approved Drugs from a Publicly Accessible Panel of Assays” (PLoS ONE, 2015).
Like-named read-outs stand apart in the source and are kept apart here.

Columns and labels:
HT-29 = assay: cells; type: cell-based
[1] = tested on: endothelial tube formation in co-cultures of ECFCs and ADSCs treated with VEGF; assay: cells; type: cell-based, human
SW480 = assay: cells; type: cell-based
DLD-1 = assay: cells; type: cell-based
NCI-H716 cells = assay: cells; type: cell-based, Human
[2] = tested on: HCT116 cells treated with a GSK3β inhibitor; assay: cells; type: cell-based
SNU-C1 = assay: cells; type: cell-based; details: read-out: Basal_Viability ATP SNU-C1
hp70S6K1 (RPS6KB1) = biological target: T1, hp70S6K1 (RPS6KB1) (Homo sapiens, UniProt P23443); assay: Cerep LANCE kinase assay hp70S6K1 (S1 assay 31); type: biochemical; details: read-out: p70S6K1
T1 construct: purchased Cerep (LANCE kinase assay platform, contract assay)

HeLa cells = assay: cells; type: cell-based; details: HeLa, read-out: CellCycle G2/M
[3] = tested on: nuclear β-catenin in C2C12 cells; assay: cells; type: cell-based
hKDR = biological target: T2, hKDR (Homo sapiens, UniProt P35968); assay: Cerep LANCE kinase assay hKDR (S1 assay 32); type: biochemical; details: read-out: KDR
T2 construct: purchased Cerep (LANCE kinase assay platform, contract assay)

RKO = assay: cells; type: cell-based; details: read-out: Basal_Viability ATP RKO
hFLT3 = biological target: T3, hFLT3 (Homo sapiens, UniProt P36888); assay: Cerep LANCE kinase assay hFLT3 (S1 assay 35); type: biochemical; details: read-out: FLT3
T3 construct: purchased Cerep (LANCE kinase assay platform, contract assay)

INS-1E cells = assay: cells; type: cell-based, rat
Colo320 = assay: cells; type: cell-based
HCT116 = assay: cells; type: cell-based
hGSK3b = biological target: T4, hGSK3b (Homo sapiens, UniProt P49841); assay: Cerep LANCE kinase assay hGSK3b (S1 assay 34); type: biochemical; details: read-out: GSK3b
T4 construct: purchased Cerep (LANCE kinase assay platform, contract assay)

hJAK2 = biological target: T5, hJAK2 (Homo sapiens, UniProt O60674); assay: Cerep LANCE kinase assay hJAK2 (S1 assay 33); type: biochemical; details: read-out: JAK2
T5 construct: purchased Cerep (LANCE kinase assay platform, contract assay)

[4] = Homo sapiens, HT-29, read-out: Basal_Viability ATP HT-29
[5] = Homo sapiens, read-out: Anti-Angiogenesis
[6] = Homo sapiens, SW480, read-out: Basal_Viability ATP SW480
[7] = Homo sapiens, DLD-1, read-out: Basal_Viability ATP DLD-1
[8] = Homo sapiens, NCI-H716, read-out: GLP 1 Secretion
[9] = Homo sapiens, HCT-116, read-out: GSK3b inh pretreated_Viability ATP HCT116
[10] = Mus musculus, C2C12, read-out: Wnt Pathway
[11] = Rattus norvegicus, INS-1E, read-out: Insulin Secretion
[12] = Homo sapiens, HCT-116, read-out: Basal_Viability ATP HCT116

T3 sequence (P36888 27-993): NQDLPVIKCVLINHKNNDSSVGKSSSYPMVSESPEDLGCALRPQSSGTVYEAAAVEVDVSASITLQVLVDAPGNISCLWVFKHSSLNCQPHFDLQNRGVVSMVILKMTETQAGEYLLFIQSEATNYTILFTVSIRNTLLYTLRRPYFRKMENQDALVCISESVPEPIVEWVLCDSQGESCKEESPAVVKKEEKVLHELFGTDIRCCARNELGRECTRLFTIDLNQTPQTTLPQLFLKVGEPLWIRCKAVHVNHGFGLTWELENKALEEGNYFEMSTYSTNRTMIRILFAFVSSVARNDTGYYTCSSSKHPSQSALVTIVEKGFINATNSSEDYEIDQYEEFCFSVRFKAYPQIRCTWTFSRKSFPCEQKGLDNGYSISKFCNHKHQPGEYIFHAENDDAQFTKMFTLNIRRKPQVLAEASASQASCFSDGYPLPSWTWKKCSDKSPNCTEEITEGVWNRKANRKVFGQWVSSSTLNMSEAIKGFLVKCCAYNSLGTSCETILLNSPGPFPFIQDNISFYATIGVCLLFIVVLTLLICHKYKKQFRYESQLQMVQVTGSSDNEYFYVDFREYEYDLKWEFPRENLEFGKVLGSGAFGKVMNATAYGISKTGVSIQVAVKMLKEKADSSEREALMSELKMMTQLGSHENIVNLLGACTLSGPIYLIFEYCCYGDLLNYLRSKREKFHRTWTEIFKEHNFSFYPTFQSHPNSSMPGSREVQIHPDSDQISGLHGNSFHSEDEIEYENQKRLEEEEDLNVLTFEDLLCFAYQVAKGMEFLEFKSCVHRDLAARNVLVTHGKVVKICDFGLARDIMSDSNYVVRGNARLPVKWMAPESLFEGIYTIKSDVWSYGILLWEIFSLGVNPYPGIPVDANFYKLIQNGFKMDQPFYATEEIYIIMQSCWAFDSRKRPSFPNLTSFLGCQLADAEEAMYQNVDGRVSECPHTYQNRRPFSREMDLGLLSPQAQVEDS
T1 sequence (P23443 whole entry): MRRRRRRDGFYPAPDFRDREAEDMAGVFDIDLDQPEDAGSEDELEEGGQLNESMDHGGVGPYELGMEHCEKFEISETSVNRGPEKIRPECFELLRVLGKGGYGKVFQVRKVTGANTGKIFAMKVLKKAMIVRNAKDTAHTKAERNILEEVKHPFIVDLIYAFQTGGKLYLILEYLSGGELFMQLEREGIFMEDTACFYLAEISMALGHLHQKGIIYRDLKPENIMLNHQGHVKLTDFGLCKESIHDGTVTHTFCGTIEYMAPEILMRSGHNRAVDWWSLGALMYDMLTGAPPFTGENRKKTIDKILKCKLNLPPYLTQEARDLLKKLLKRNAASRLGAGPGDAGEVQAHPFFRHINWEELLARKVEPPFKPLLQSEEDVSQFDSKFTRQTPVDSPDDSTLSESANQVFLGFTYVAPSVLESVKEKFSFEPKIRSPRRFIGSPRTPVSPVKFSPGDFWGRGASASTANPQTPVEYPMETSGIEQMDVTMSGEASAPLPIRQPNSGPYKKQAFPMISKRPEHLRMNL
T5 sequence (O60674 whole entry): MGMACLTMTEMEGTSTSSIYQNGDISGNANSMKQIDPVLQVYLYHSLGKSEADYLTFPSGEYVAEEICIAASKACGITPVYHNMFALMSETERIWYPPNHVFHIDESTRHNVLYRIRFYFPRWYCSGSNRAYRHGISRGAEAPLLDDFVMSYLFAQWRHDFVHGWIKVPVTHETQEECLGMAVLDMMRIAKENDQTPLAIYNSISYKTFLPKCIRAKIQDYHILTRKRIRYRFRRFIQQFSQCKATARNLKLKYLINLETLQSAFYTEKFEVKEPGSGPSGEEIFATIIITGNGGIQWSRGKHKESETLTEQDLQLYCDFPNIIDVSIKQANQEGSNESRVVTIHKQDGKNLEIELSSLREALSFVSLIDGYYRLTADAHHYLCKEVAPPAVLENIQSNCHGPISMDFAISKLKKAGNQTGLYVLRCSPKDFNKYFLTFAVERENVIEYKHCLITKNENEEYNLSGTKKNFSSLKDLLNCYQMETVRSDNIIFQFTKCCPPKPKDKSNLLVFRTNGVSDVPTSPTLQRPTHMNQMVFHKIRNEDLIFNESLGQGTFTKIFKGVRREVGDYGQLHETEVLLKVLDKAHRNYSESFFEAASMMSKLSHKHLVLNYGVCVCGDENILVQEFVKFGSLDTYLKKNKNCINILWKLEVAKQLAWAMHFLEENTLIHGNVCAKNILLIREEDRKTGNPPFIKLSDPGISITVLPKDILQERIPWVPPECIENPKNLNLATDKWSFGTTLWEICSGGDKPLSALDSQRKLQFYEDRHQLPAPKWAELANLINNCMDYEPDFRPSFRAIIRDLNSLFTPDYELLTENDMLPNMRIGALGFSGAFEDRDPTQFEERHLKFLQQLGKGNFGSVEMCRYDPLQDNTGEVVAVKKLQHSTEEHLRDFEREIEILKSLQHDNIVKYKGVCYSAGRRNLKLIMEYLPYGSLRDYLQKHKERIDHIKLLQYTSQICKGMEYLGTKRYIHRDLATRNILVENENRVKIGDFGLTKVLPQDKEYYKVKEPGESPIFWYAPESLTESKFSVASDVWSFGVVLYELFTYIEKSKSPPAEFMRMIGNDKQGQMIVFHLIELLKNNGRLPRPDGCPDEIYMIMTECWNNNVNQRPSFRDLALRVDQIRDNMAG
T2 sequence (P35968 20-1356): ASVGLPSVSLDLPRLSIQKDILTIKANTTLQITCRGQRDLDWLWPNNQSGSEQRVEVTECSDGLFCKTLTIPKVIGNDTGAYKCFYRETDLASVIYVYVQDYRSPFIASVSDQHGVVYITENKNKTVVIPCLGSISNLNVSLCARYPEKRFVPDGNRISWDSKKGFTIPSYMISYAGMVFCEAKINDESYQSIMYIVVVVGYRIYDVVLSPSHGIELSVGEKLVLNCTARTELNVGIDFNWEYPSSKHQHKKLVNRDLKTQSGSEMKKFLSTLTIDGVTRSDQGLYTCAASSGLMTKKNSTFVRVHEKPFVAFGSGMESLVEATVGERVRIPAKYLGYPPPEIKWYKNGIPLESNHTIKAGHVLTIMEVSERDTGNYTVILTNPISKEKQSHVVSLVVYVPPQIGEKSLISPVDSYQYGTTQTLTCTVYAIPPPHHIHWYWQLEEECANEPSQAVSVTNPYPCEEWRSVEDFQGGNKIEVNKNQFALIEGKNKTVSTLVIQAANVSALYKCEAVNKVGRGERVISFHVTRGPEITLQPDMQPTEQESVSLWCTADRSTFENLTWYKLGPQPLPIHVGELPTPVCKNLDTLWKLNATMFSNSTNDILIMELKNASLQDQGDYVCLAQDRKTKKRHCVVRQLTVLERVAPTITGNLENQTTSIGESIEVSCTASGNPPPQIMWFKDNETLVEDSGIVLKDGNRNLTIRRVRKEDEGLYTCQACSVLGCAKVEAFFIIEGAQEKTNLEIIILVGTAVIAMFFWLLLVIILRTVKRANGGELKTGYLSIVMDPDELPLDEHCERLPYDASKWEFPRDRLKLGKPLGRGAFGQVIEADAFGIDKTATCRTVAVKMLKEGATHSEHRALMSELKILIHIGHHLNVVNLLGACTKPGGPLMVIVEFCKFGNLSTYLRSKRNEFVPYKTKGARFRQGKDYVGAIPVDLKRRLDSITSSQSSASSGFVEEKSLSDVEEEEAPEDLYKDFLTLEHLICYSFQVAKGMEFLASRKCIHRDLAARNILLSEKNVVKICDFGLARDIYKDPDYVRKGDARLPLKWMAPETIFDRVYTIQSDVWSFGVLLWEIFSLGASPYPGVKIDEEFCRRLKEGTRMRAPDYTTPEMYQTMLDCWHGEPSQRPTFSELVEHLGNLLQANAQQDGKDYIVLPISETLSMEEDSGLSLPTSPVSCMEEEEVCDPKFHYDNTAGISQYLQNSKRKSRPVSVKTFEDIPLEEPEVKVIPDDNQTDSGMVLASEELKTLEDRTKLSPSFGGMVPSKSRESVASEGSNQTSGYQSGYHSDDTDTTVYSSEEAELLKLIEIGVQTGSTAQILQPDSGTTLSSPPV
T4 sequence (P49841 whole entry): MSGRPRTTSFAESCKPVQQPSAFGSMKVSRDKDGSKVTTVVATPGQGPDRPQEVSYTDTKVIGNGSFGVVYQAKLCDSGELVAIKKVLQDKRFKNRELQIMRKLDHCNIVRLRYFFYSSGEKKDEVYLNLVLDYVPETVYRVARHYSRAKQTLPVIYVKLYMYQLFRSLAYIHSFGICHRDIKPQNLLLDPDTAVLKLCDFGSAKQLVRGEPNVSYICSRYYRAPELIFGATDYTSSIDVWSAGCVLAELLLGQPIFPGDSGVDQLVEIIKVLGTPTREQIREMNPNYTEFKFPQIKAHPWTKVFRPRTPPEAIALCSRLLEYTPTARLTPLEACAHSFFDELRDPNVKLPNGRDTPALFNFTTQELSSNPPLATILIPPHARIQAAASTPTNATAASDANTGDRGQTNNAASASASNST

Compound | IC50 (hp70S6K1 (RPS6KB1)) [nM] | IC50 (hKDR) [nM] | IC50 (hFLT3) [nM] | IC50 (hGSK3b) [nM] | IC50 (hJAK2) [nM] | IC50 (HT-29; [4]) [nM] | IC50 [1, 5] [nM] | IC50 (SW480; [6]) [nM] | IC50 (DLD-1; [7]) [nM] | EC50 (NCI-H716 cells; [8]) [nM] | IC50 [2, 9] [nM] | EC50 (HeLa cells; Homo sapiens) [nM] | EC50 [3, 10] [nM] | IC50 (RKO; Homo sapiens, RKO) [nM] | EC50 (INS-1E cells; [11]) [nM] | IC50 (HCT116; [12]) [nM] | IC50 (hp70S6K1 (RPS6KB1); kinase assay) [nM] | IC50 (hKDR; kinase assay) [nM] | IC50 (hFLT3; kinase assay) [nM] | IC50 (hGSK3b; kinase assay) [nM] | further results
O=C(CCl)c1ccc(Cl)cc1Cl [2,2',4'-Trichloroacetophenone] | > 20000 | > 20000 | > 20000 | > 20000 | > 20000 | – | – | – | – | – | – | – | – | – | – | – | – | – | – | – | IC50 (HT-29; basal, read-out: Basal_Viability ATP HT-29): 8520 nM; IC50 ([1]; IC50 / EC50; endothelial tube area, ADSC/ECFC co-culture; read-out: Anti-Angiogenesis): 2490 nM; IC50 (SW480; basal, read-out: Basal_Viability ATP SW480): 1250 nM; IC50 (DLD-1; basal, read-out: Basal_Viability ATP DLD-1): 2070 nM; EC50 (NCI-H716 cells; IC50 / EC50; NCI-H716; read-out: GLP 1 Secretion): > 10000 nM; IC50 ([2]; GSK3b inhibitor pretreated, read-out: GSK3b inh pretreated_Viability ATP HCT116): 1100 nM; IC50 (SNU-C1; basal): 2980 nM; EC50 (HeLa cells; IC50 / EC50): > 10000 nM; EC50 ([3]; IC50 / EC50; C2C12 beta-catenin translocation; read-out: Wnt Pathway): 373 nM; IC50 (RKO; basal): 4300 nM; EC50 (INS-1E cells; IC50 / EC50; INS-1E; read-out: Insulin Secretion): > 10000 nM; IC50 (Colo320; basal, read-out: Basal_Viability ATP Colo 320): 530 nM; IC50 (HCT116; basal, read-out: Basal_Viability ATP HCT116): 6300 nM
CC(C)(C)[C@H]1CC[C@H](CC2=C(O)C(=O)c3ccccc3C2=O)CC1 [Buparvaquone] | > 20000 | > 20000 | > 20000 | > 20000 | > 20000 | 3390 | 1960 | 205 | 218 | > 10000 | 66.7 | > 10000 | > 10000 | 133 | > 10000 | 227 | – | – | – | – | IC50 (Colo320; Homo sapiens, COLO 320, read-out: Basal_Viability ATP Colo 320): 255 nM
COC(=O)Nc1nc2ccc(C(=O)C3CC3)cc2[nH]1 [Ciclobendazole] | – | – | – | – | – | – | – | – | – | – | – | – | – | – | – | – | > 20000 | 15100 | 6140 | 14900 | IC50 (HT-29; Homo sapiens, basal, HT-29, read-out: Basal_Viability ATP HT-29): 1680 nM; IC50 ([1]; Homo sapiens; read-out: Anti-Angiogenesis): 1190 nM; IC50 (SW480; Homo sapiens, SW480, basal, SW480, read-out: Basal_Viability ATP SW480): > 20000 nM; IC50 (DLD-1; Homo sapiens, DLD-1, basal, DLD-1, read-out: Basal_Viability ATP DLD-1): 5460 nM; EC50 (NCI-H716 cells; Homo sapiens, NCI-H716; read-out: GLP 1 Secretion): > 10000 nM; IC50 (SNU-C1; Homo sapiens, SNU-C1, basal, SNU-C1): > 20000 nM; EC50 (HeLa cells; Homo sapiens, S2 Table, 20 = no response at highest concentration): 416 nM; EC50 ([3]; Mus musculus, C2C12; read-out: Wnt Pathway): 349 nM; IC50 (RKO; Homo sapiens, basal, RKO): 162 nM; EC50 (INS-1E cells; Rattus norvegicus, INS-1E; read-out: Insulin Secretion): > 10000 nM; IC50 (Colo320; Homo sapiens, basal, Colo 320, read-out: Basal_Viability ATP Colo 320): 156 nM; IC50 (HCT116; Homo sapiens, HCT-116, basal, HCT116, read-out: Basal_Viability ATP HCT116): 174 nM; IC50 (hJAK2; kinase assay): > 20000 nM
COC(=O)Nc1nc2ccc([S+]([O-])c3ccccc3)cc2[nH]1 (centres unmarked) [Oxfendazole] | – | – | – | – | – | > 20000 | 288 | > 20000 | > 20000 | > 10000 | 1 | 331 | 468 | 1 | > 10000 | 1 | > 20000 | > 20000 | > 20000 | > 20000 | IC50 (hJAK2; kinase assay): > 20000 nM
